Test results from ChEMBL document CHEMBL3621085, “Tetrazole regioisomers in the development of nitro group-containing antitubercular agents” (Medchemcomm, 2015).
In brackets after ≈: the same amount, converted by molar mass.

Tests used:
[1] = tested on: Mycobacterium tuberculosis; assay: Antimycobacterial activity against Mycobacterium tuberculosis My 331/88 after 14 days by micromethod; type: functional; conditions: My 331/88, 336 h
Mycobacterium avium [2] = assay: Antimycobacterial activity against Mycobacterium avium My 330/88 after 14 days by micromethod; type: functional; conditions: My 330/88, 336 h
[3] = tested on: Mycobacterium tuberculosis; assay: Antimycobacterial activity against Mycobacterium tuberculosis My 331/88 after 21 days by micromethod; type: functional; conditions: My 331/88, 504 h
Mycobacterium avium [4] = assay: Antimycobacterial activity against Mycobacterium avium My 330/88 after 21 days by micromethod; type: functional; conditions: My 330/88, 504 h
Mycobacterium kansasii [5] = assay: Antimycobacterial activity against Mycobacterium kansasii My 235/80 after 7 days by micromethod; type: functional; conditions: My 235/80, 168 h
Mycobacterium kansasii [6] = assay: Antimycobacterial activity against Mycobacterium kansasii My 235/80 after 14 days by micromethod; type: functional; conditions: My 235/80, 336 h
Mycobacterium kansasii [7] = assay: Antimycobacterial activity against Mycobacterium kansasii My 235/80 after 21 days by micromethod; type: functional; conditions: My 235/80, 504 h
Mycobacterium kansasii [8] = assay: Antimycobacterial activity against Mycobacterium kansasii 6509/96 after 7 days by micromethod; type: functional; conditions: 6509/96, 168 h
Mycobacterium kansasii [9] = assay: Antimycobacterial activity against Mycobacterium kansasii 6509/96 after 14 days by micromethod; type: functional; conditions: 6509/96, 336 h
Mycobacterium kansasii [10] = assay: Antimycobacterial activity against Mycobacterium kansasii 6509/96 after 21 days by micromethod; type: functional; conditions: 6509/96, 504 h
[11] = Cytotoxicity against CHOK1 cells assessed as viability after 24 hrs by MTT assay; type: cell-based; conditions: Cricetulus griseus, CHO-K1, 24 h

Row | SMILES | MIC [1] [µM] | MIC (Mycobacterium avium [2]) [µM] | MIC [3] [µM] | MIC (Mycobacterium avium [4]) [µM] | MIC (Mycobacterium kansasii [5]) [µM] | MIC (Mycobacterium kansasii [6]) [µM] | MIC (Mycobacterium kansasii [7]) [µM] | MIC (Mycobacterium kansasii [8]) [µM] | MIC (Mycobacterium kansasii [9]) [µM] | MIC (Mycobacterium kansasii [10]) [µM] | IC50 [11] [µM]
1 | Cn1nnc(SCc2cc([N+](=O)[O-])cc([N+](=O)[O-])c2)n1 | 2 (≈ 0.593 µg/mL) | 125 (≈ 37 µg/mL) | 4 (≈ 1.19 µg/mL) | 250 (≈ 74.1 µg/mL) | 4 (≈ 1.19 µg/mL) | 8 (≈ 2.37 µg/mL) | 8 (≈ 2.37 µg/mL) | 8 (≈ 2.37 µg/mL) | 16 (≈ 4.74 µg/mL) | 16 (≈ 4.74 µg/mL) | –
2 | O=[N+]([O-])c1ccc(Cn2nnnc2[Se]Cc2ccccc2)c([N+](=O)[O-])c1 | 1 (≈ 0.419 µg/mL) | 16 (≈ 6.71 µg/mL) | 2 (≈ 0.839 µg/mL) | 32 (≈ 13.4 µg/mL) | 32 (≈ 13.4 µg/mL) | 62 (≈ 26 µg/mL) | 62 (≈ 26 µg/mL) | 16 (≈ 6.71 µg/mL) | 62 (≈ 26 µg/mL) | 125 (≈ 52.4 µg/mL) | –
3 | O=[N+]([O-])c1cc(Cn2nnc(SCc3ccccc3)n2)cc([N+](=O)[O-])c1 | 16 (≈ 5.96 µg/mL) | 125 (≈ 46.5 µg/mL) | 16 (≈ 5.96 µg/mL) | 125 (≈ 46.5 µg/mL) | 16 (≈ 5.96 µg/mL) | 32 (≈ 11.9 µg/mL) | 32 (≈ 11.9 µg/mL) | 16 (≈ 5.96 µg/mL) | 32 (≈ 11.9 µg/mL) | 32 (≈ 11.9 µg/mL) | 148
4 | NNC(=O)c1ccncc1 [ISONIAZID] | 0.5 (≈ 0.0686 µg/mL) | 250 (≈ 34.3 µg/mL) | 1 (≈ 0.137 µg/mL) | 250 (≈ 34.3 µg/mL) | 250 (≈ 34.3 µg/mL) | 250 (≈ 34.3 µg/mL) | 250 (≈ 34.3 µg/mL) | 4 (≈ 0.549 µg/mL) | 4 (≈ 0.549 µg/mL) | 4 (≈ 0.549 µg/mL) | –
5 | O=[N+]([O-])c1cc(CSc2nnn(Cc3ccc(Cl)c(Cl)c3)n2)cc([N+](=O)[O-])c1 | 1 (≈ 0.441 µg/mL) | 125 (≈ 55.2 µg/mL) | 1 (≈ 0.441 µg/mL) | 125 (≈ 55.2 µg/mL) | 8 (≈ 3.53 µg/mL) | 16 (≈ 7.06 µg/mL) | 32 (≈ 14.1 µg/mL) | 16 (≈ 7.06 µg/mL) | 32 (≈ 14.1 µg/mL) | 32 (≈ 14.1 µg/mL) | 150
6 | O=[N+]([O-])c1ccc(CSc2nnn(Cc3ccccc3)n2)c([N+](=O)[O-])c1 | 4 (≈ 1.49 µg/mL) | 32 (≈ 11.9 µg/mL) | 4 (≈ 1.49 µg/mL) | 62 (≈ 23.1 µg/mL) | 16 (≈ 5.96 µg/mL) | 32 (≈ 11.9 µg/mL) | 62 (≈ 23.1 µg/mL) | 8 (≈ 2.98 µg/mL) | 16 (≈ 5.96 µg/mL) | 32 (≈ 11.9 µg/mL) | 21
7 | O=[N+]([O-])c1cc(Cn2nnc([Se]Cc3ccccc3)n2)cc([N+](=O)[O-])c1 | 8 (≈ 3.35 µg/mL) | 16 (≈ 6.71 µg/mL) | 8 (≈ 3.35 µg/mL) | 16 (≈ 6.71 µg/mL) | 8 (≈ 3.35 µg/mL) | 16 (≈ 6.71 µg/mL) | 32 (≈ 13.4 µg/mL) | 16 (≈ 6.71 µg/mL) | 32 (≈ 13.4 µg/mL) | 32 (≈ 13.4 µg/mL) | 118
8 | Cn1nnc(SCc2ccc([N+](=O)[O-])cc2[N+](=O)[O-])n1 | 4 (≈ 1.19 µg/mL) | 125 (≈ 37 µg/mL) | 8 (≈ 2.37 µg/mL) | 125 (≈ 37 µg/mL) | 32 (≈ 9.48 µg/mL) | 125 (≈ 37 µg/mL) | 125 (≈ 37 µg/mL) | 32 (≈ 9.48 µg/mL) | 125 (≈ 37 µg/mL) | 125 (≈ 37 µg/mL) | –
9 | Cn1nnnc1SCc1ccc([N+](=O)[O-])cc1[N+](=O)[O-] | 16 (≈ 4.74 µg/mL) | 125 (≈ 37 µg/mL) | 16 (≈ 4.74 µg/mL) | 500 (≈ 148 µg/mL) | 125 (≈ 37 µg/mL) | 500 (≈ 148 µg/mL) | 500 (≈ 148 µg/mL) | 125 (≈ 37 µg/mL) | 500 (≈ 148 µg/mL) | 500 (≈ 148 µg/mL) | –
10 | O=[N+]([O-])c1ccc(CSc2nnnn2Cc2ccc([N+](=O)[O-])cc2)cc1 | 500 (≈ 186 µg/mL) | 250 (≈ 93.1 µg/mL) | 500 (≈ 186 µg/mL) | 250 (≈ 93.1 µg/mL) | 250 (≈ 93.1 µg/mL) | 250 (≈ 93.1 µg/mL) | 250 (≈ 93.1 µg/mL) | 250 (≈ 93.1 µg/mL) | 250 (≈ 93.1 µg/mL) | 250 (≈ 93.1 µg/mL) | –
11 | O=[N+]([O-])c1cc(CSc2nnnn2Cc2ccc(Cl)c(Cl)c2)cc([N+](=O)[O-])c1 | 2 (≈ 0.883 µg/mL) | 125 (≈ 55.2 µg/mL) | 2 (≈ 0.883 µg/mL) | 125 (≈ 55.2 µg/mL) | 2 (≈ 0.883 µg/mL) | 4 (≈ 1.77 µg/mL) | 4 (≈ 1.77 µg/mL) | 2 (≈ 0.883 µg/mL) | 4 (≈ 1.77 µg/mL) | 8 (≈ 3.53 µg/mL) | 140
12 | O=[N+]([O-])c1ccc(CSc2nnnn2Cc2ccccc2)c([N+](=O)[O-])c1 | 8 (≈ 2.98 µg/mL) | 250 (≈ 93.1 µg/mL) | 8 (≈ 2.98 µg/mL) | 250 (≈ 93.1 µg/mL) | 8 (≈ 2.98 µg/mL) | 32 (≈ 11.9 µg/mL) | 62 (≈ 23.1 µg/mL) | 16 (≈ 5.96 µg/mL) | 32 (≈ 11.9 µg/mL) | 62 (≈ 23.1 µg/mL) | –
13 | COc1ccc(C[Se]c2nnnn2Cc2cc([N+](=O)[O-])cc([N+](=O)[O-])c2)cc1 | 16 (≈ 7.19 µg/mL) | 125 (≈ 56.2 µg/mL) | 16 (≈ 7.19 µg/mL) | 125 (≈ 56.2 µg/mL) | 16 (≈ 7.19 µg/mL) | 32 (≈ 14.4 µg/mL) | 62 (≈ 27.9 µg/mL) | 16 (≈ 7.19 µg/mL) | 32 (≈ 14.4 µg/mL) | 62 (≈ 27.9 µg/mL) | –
14 | Cn1nnnc1[Se]Cc1cc([N+](=O)[O-])cc([N+](=O)[O-])c1 | 8 (≈ 2.75 µg/mL) | 500 (≈ 172 µg/mL) | 8 (≈ 2.75 µg/mL) | 500 (≈ 172 µg/mL) | 8 (≈ 2.75 µg/mL) | 32 (≈ 11 µg/mL) | 32 (≈ 11 µg/mL) | 16 (≈ 5.49 µg/mL) | 32 (≈ 11 µg/mL) | 32 (≈ 11 µg/mL) | –
